Laboratory results reported in US20260167621A1, “Three Cluster Galactose Type Compound, Conjugate, Making Method and Use Thereof” (GUANGZHOU RIBOBIO CO., LTD., priority 2023, published 2026).

Experiments:
PCSK9 mRNA = assay: Knock down effect on the expression of PCSK9 mRNA in Hep3B cell; type: cell-based, human; details: Lipofectamine 3000 transfection, qPCR, actin as reference gene
Protocol: Referring to Chinese Patent Application No. CN109957567B, the synthesized siRNA sequences were shown below:
The compound G2, G4, G5 obtained from the examples 2, 4, 5, bound to the above mentioned siRNA respectively to form conjugates which were shown in Table 4.
Hep3B cell (ATCC, HB-8064) was cultured, the cell density was about 30% to 50% before transfection and relatively uniformly.
Each conjugate samples of Table 4 were prepared to 20 μM storage solution, and were set as experimental groups. Except the experimental groups, normal cell control group (Blank), transfection reagent control group (Mock), negative control group 1 (NC001, Ribobio, siM21 1215011852) and negative control group 2 (NC002, Ribobio, siM21 1215011852) were also set. Referring to the specification of Lipofectamine™ 3000 transfection reagent (Thermo Fisher, L300001), cells were transfected. Both the experimental groups and the control groups had 3 replicates.
The total RNA extraction was performed with reference to the specification of MagZol Reagent (Magen, R4801).
The reverse transcription was performed with reference to the specification of riboSCRIPT™ Reverse Transcription Kit (Ribobio, C11027-2).
Human house keeping gene actin was used for reference gene, forward primer sequence of actin gene: 5′-[…]-3′ (SEQ ID NO: 5), reverse primer sequence: 5′-[…]-3′ (SEQ ID NO: 6); forward primer sequence of human PCSK9 gene: 5′-[…]-3′ (SEQ ID NO: 7), reverse primer sequence: 5′-[…]-3′ (SEQ ID NO: 8). 2×SYBR Green Mix (Ribobio, C10712F −1 m l) and fluorescence quantitative PCR instrument (BioRad, CFX96) were used to perform real time fluorescence quantitative PCR reaction. After PCR reaction, the Ct deviation of 9 replicates of a sample (3 transfection replicates×3 qPCR duplicates) should be ±0.5. Then CFX 2.1 software was used for quantitative analysis.

[1] = biological target: T1, Hepatocyte ASGPR receptor (Homo sapiens, UniProt P07306); assay: Binding affinity test with hepatocyte ASGPR receptor (Cy5 flow cytometry, binding saturation curve); details: for Bmax: average Cy5 fluorescence intensity of live cells minus blank, one site binding (hyperbola) fit; for Bmax / Kd: 0.9-100 nM, 2 hours on ice; for Kd: one site binding (hyperbola) fit of Cy5 fluorescence, read-out: Kd (dissociation equilibrium constant); for binding affinity with ASGPR receptor: statement in words from Table 3
T1 construct: endogenous in cells
T1 sequence (P07306 1-291): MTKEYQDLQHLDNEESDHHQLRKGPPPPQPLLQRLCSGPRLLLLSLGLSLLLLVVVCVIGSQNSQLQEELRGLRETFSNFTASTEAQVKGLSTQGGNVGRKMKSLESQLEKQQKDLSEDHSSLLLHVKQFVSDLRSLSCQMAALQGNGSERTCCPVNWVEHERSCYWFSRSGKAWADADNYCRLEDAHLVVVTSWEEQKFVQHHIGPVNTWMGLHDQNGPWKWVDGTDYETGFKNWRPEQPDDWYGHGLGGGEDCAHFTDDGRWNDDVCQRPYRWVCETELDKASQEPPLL
T1 sequence (P07307 1-311 partner): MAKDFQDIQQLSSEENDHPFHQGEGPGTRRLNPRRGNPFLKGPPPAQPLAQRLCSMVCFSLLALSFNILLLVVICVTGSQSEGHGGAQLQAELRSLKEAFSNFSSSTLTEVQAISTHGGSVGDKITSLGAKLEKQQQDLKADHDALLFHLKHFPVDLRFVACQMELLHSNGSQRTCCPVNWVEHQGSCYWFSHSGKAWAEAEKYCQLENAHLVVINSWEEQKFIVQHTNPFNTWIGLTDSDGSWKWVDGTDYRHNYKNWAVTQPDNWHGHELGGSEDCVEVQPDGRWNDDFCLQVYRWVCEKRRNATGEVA
Protocol: Embodiment 1: Binding Affinity Test with Hepatocyte ASGPR Receptor
The compound G1, G4, G5 obtained from the examples 1, 4, 5, bound to the above mentioned siRNA respectively to form conjugates which were shown in Table 1.
G1-12, G4-12, G5-12 (1 uM) were diluted respectively in a gradient according to the following Table 2.
The cell concentration was diluted by DMEM culture medium with 2% FBS to 4*10^5 cells/mL.
200 μL cells of each sample and 200 μL siRNA were mixed uniformly, 200 μL cells of the blank control group and 200 μL culture medium were mixed uniformly, and were added in 3 wells of 96-well plate with U-shaped bottom, 100 μL each well. Samples of each concentration of all siRNA were placed in the ice box after sampling, and were placed in decolorization shaker and incubated in dark for 2 hours.
50 g of 96-well plate with U-shaped bottom was centrifuged for 2 minutes at 4° C. 80 μL supernatant was aspirated and discarded by pipette, 10 μg/mL propidium iodide was prepared by using of PBS with 2% FBS, 100 μL PI reagent was added in each well and was stained for 15 minutes. After staining, 50 g of 96-well plate with U-shaped bottom was centrifuged for 2 minutes at 4° C. After washed by PBS with 2% FBS for twice, 100 μL PBS with 2% FBS was added for resuspension, flow cytometer was used to test and count the average Cy5 fluorescence intensity of live cell population.

Substance	PCSK9 mRNA relative expression value, the average relative expression (PCSK9 mRNA)	Bmax [1]	Kd [1] [nM]	binding affinity with ASGPR receptor [1]
G2-34: G2 bound to 5' end of SEQ ID NO: 3, paired with 5'-phos* SEQ ID NO: 4 (PCSK9 siRNA); structure Z2 (sense GGUCUGGAAUGCAAAGUCA; antisense UGACUUUGCAUUCCAGACC; G2 ligand 5'; 5'-phosphate; modified_base join(1,4,5,6,10,11,12,13,14,15,16) OTHER; 2'-O-methyl modification; modified_base join(2,3,17,18,19) OTHER; thiophosphorylated skeleton modification and 2'-O-methyl modification; modified_base join(7,8,9) OTHER; 2'-fluoro modification; modified_base join(1,5,7,9,11,13,15) OTHER; modified_base join(3,17,18,19) OTHER; modified_base 2 OTHER; thiophosphorylated skeleton modification and 2'-fluoro modification; modified_base join(4,6,8,10,12,14,16) OTHER) [Compound G2-34]	0.34	–	–	–
G4-12: G4 bound to 5' end of SEQ ID NO: 1 via C6 amino modification, paired with 5'-Cy5 SEQ ID NO: 2; structure Z4 (sense GUAUGUUGCCCGUUUGUCC; antisense GGACAAACGGGCAACAUACCU; G4 ligand via C6 amino; Cy5 label; modified_base join(1,5,8,12,16) OTHER; deoxyribonucleotide modification; modified_base 3 OTHER; thiophosphorylated skeleton modification and deoxyribonucleotide modification; modified_base join(4,6,7,9,10,11,13,14,15,17) OTHER; 2'-fluoro modification; modified_base join(2,18,19) OTHER; thiophosphorylated skeleton modification and 2'-fluoro modification; modified_base join(1,5,7,9,11,13,15,17) OTHER; 2'-O-methyl modification; modified_base join(3,19,20,21) OTHER; thiophosphorylated skeleton modification and 2'-O-methyl modification; modified_base join(2,4) …) [Compound G4-12]	–	239297	6.37	reach a higher level
G4-34: G4 bound to 5' end of SEQ ID NO: 3 via C6 amino modification, paired with 5'-phos* SEQ ID NO: 4; structure Z4 (sense GGUCUGGAAUGCAAAGUCA; antisense UGACUUUGCAUUCCAGACC; G4 ligand via C6 amino; 5'-phosphate; modified_base join(1,4,5,6,10,11,12,13,14,15,16) OTHER; 2'-O-methyl modification; modified_base join(2,3,17,18,19) OTHER; thiophosphorylated skeleton modification and 2'-O-methyl modification; modified_base join(7,8,9) OTHER; 2'-fluoro modification; modified_base join(1,5,7,9,11,13,15) OTHER; modified_base join(3,17,18,19) OTHER; modified_base 2 OTHER; thiophosphorylated skeleton modification and 2'-fluoro modification; modified_base join(4,6,8,10,12,14,16) OTHER) [Compound G4-34]	0.41	–	–	–
G5-12: G5 bound to 5' end of SEQ ID NO: 1 via C6 amino modification, paired with 5'-Cy5 SEQ ID NO: 2; structure Z5 (sense GUAUGUUGCCCGUUUGUCC; antisense GGACAAACGGGCAACAUACCU; G5 ligand via C6 amino; Cy5 label; modified_base join(1,5,8,12,16) OTHER; deoxyribonucleotide modification; modified_base 3 OTHER; thiophosphorylated skeleton modification and deoxyribonucleotide modification; modified_base join(4,6,7,9,10,11,13,14,15,17) OTHER; 2'-fluoro modification; modified_base join(2,18,19) OTHER; thiophosphorylated skeleton modification and 2'-fluoro modification; modified_base join(1,5,7,9,11,13,15,17) OTHER; 2'-O-methyl modification; modified_base join(3,19,20,21) OTHER; thiophosphorylated skeleton modification and 2'-O-methyl modification; modified_base join(2,4) …) [Compound G5-12]	–	199232	3.69	reach a higher level
G5-34: G5 bound to 5' end of SEQ ID NO: 3 via C6 amino modification, paired with 5'-phos* SEQ ID NO: 4; structure Z5 (sense GGUCUGGAAUGCAAAGUCA; antisense UGACUUUGCAUUCCAGACC; G5 ligand via C6 amino; 5'-phosphate; modified_base join(1,4,5,6,10,11,12,13,14,15,16) OTHER; 2'-O-methyl modification; modified_base join(2,3,17,18,19) OTHER; thiophosphorylated skeleton modification and 2'-O-methyl modification; modified_base join(7,8,9) OTHER; 2'-fluoro modification; modified_base join(1,5,7,9,11,13,15) OTHER; modified_base join(3,17,18,19) OTHER; modified_base 2 OTHER; thiophosphorylated skeleton modification and 2'-fluoro modification; modified_base join(4,6,8,10,12,14,16) OTHER) [Compound G5-34]	0.33	–	–	–
